# Assay results as given in EP0445731B1 (priority 1990, dated 1991).
# Structures can show the parent of a compound that is named as a salt. Where two headings read alike, the source gives them in different places.
# What was measured:
# muscarinic binding site [1] = assay: RCMD screening assay: inhibition of binding of radiolabeled cis-methyldioxolane (muscarinic agonist) to rat cerebral cortex tissue; details: read-out: IC₅nM RCMD
# Protocol: Similarly, in the RCMD screening assay, described more fully by T. W. Vickeroy, et al, 229(3):747 (1984), rat cerebral cortex tissue was treated with radiolabeled cis-methyldioxolane, a known muscarinic binding site agonist. The concentrations of test compounds required to inhibit 50% of the binding of this muscarinic agonist were then determined. […]
# muscarinic binding site [2] = details: rat cerebral cortex tissue, radiolabeled quinuclidinyl benzilate, read-out: IC₅₀nM RQNB
Compound,IC50 (muscarinic binding site [1]) [nM],IC50 (muscarinic binding site [2]) [nM],IC50 (muscarinic binding site [1]; hydrochloride) [nM],IC50 (muscarinic binding site [2]; hydrochloride) [nM]
"CON=C1CN2CCC1C2 (centres unmarked) [Example 3, 1-Azabicyclo[2.2.1]heptan-3-one, O-methyloxime hydrochloride]",18.2,24600,,
"CCCON=C1CN2CCC1C2 (centres unmarked) [Example 6, 1-Azabicyclo[2.2.1]-heptan-3-one, O-propyloxime hydrochloride]",120,3850,,
"c1ccc(CON=C2CN3CCC2C3)cc1 (centres unmarked) [Example 5, 1-Azabicyclo[2.2.1]-heptan-3-one, O-(phenylmethyl)oxime hydrochloride]",133,5950,,
"C=CC=CCON=C1CN2CCC1C2 (single isomer, unassigned) [28 (Isomer B), 1-Azabicyclo[2.2.1]-heptan-3-one, O-(2,4-pentadienyl)oxime hydrochloride]",,,256,9650
"C=CCON=C1CN2CCC1C2 (centres unmarked) [Example 8, 1-Azabicyclo[2.2.1]-heptan-3-one, O-(2-propenyl)oxime oxalate]",53,4780,,
"CCON=C1CN2CCC1C2 (centres unmarked) [Example 2, 1-Azabicyclo[2.2.1]hept-3-one, O-ethyloxime hydrochloride]",12.5,3110,,
"CC(C)ON=C1CN2CCC1C2 (centres unmarked) [Example 7, 1-Azabicyclo[2.2.1]-heptan-3-one, O-(1-methylethyl)oxime hydrochloride]",46,2030,,
"N#CCON=C1CN2CCC1C2 (centres unmarked) [Example 27, {[(1-Azabicyclo[2.2.1]-heptan-3-ylidene)amino]-oxy}acetonitrile hydrochloride]",116,8820,,
"C#CCON=C1CN2CCC1C2 (centres unmarked) [Example 4, 1-Azabicyclo[2.2.1]-heptan-3-one, O-(2-propynyl)oxime hydrochloride]",3.5,2970,,
"C=CC=CCON=C1CN2CCC1C2 (single isomer, unassigned) [28 (Isomer A), 1-Azabicyclo[2.2.1]-heptan-3-one, O-(2,4-pentadienyl)oxime hydrochloride]",,,12.9,434
